Tests used:
Assay type in all cases: in vivo
[1] = system: wheat (Norin 61); assay: Test Example 3: wheat seeds on filter paper under 125 mM sodium chloride salt stress; conditions: for Foliage Length / Root Length / Root Number of roots / Foliage Recovery percentage / Root Recovery percentage: after 4 days; for Foliage Recovery percentage / Root Recovery percentage: relative to Comparative Examples 3a and 3b
Experimental: A flowable agent containing 10% of the compound of formula (I)-1 was diluted 105 times and 107 times with water to obtain chemical solution 3a and chemical solution 3b, respectively.
(§1) Eight layers of filter paper were placed at the center of a laboratory dish, and seeds (six seeds) of wheat (Norin 61) were placed on the filter paper. Four of these were prepared.
(1) 125 mM sodium chloride and 10 mL of chemical solution 2a were poured into the laboratory dish (Example 3a).
(2) 125 mM sodium chloride and 10 mL of chemical solution 2b were poured into the laboratory dish (Example 3b).
(3) 125 mM sodium chloride and 10 ml of water were poured into the laboratory dish (Comparative Example 3a).
(4) 10 mL of water was poured into the laboratory dish (Comparative Example 3b).
Each laboratory dish was placed in a growth chamber set at 25° C. and light/dark=16/8. After 4 days, the number of roots, the root length, and the foliage length were measured for five seeds in each of (1) to (4). The recovery percentage was calculated in the same manner as in Test Example 1.

[2] = system: wheat (Norin 61); assay: Test Example 1: wheat seeds on filter paper under 125 mM sodium chloride salt stress; conditions: for Foliage Length / Root Length / Root Number of roots / Foliage Recovery percentage / Root Recovery percentage: after 6 days; for Foliage Length / Root Length / Root Number of roots: average of six seeds; for Foliage Recovery percentage / Root Recovery percentage: relative to Comparative Examples 1a and 1b
Experimental: A flowable agent containing 10% of the compound of formula (I)-1 was diluted 103 times and 104 times with water to obtain chemical solution 1a and chemical solution 1b, respectively.
as §1
(1) 125 mM sodium chloride and 10 mL of chemical solution 1a were poured into the laboratory dish (Example 1a).
(2) 125 mM sodium chloride and 10 mL of chemical solution 1b were poured into the laboratory dish (Example 1b).
(3) 125 mM sodium chloride and 10 mL of water were poured into the laboratory dish (Comparative Example 1a).
(4) 10 mL of water was poured into the laboratory dish (Comparative Example 1b).
Each laboratory dish was placed in a growth chamber set at 25° C. and light/dark=16/8. After 6 days, the number of roots, the root length, and the foliage length were measured for six seeds in each of (1) to (4).
The recovery percentage was calculated from the following equation:
[formula] • X: Chemical treatment, sodium chloride applied • Y: No chemical treatment, sodium chloride applied • Z: No chemical treatment, no sodium chloride treatment

[3] = system: corn (P2307); assay: Test Example 2: corn seeds on filter paper under 125 mM sodium chloride salt stress
Experimental: A flowable agent containing 10% of the compound of formula (I)-1 was diluted 106 times with water to obtain chemical solution 2a.
Eight layers of filter paper were placed at the center of a laboratory dish, and seeds (five seeds) of corn (P2307) were placed on the filter paper. Four of these were prepared.
(1) 125 mM sodium chloride and 10 mL of chemical solution 2a were poured into the laboratory dish (Example 2a).
(2) 125 mM sodium chloride and 10 ml of water were poured into the laboratory dish (Comparative Example 2a).
(3) 10 mL of water was poured into the laboratory dish (Comparative Example 2b).
Each laboratory dish was placed in a growth chamber set at 25° C. and light/dark=16/8. After 4 days, the number of roots, the root length, and the foliage length were measured for five seeds in each of (1) to (3). The recovery percentage was calculated in the same manner as in Test Example 1.

[4] = system: wheat (variety: Kitahonami); assay: Test Example 6: wheat pot test, 8 g/L sodium chloride solution poured over soil; conditions: 8 g/L NaCl
Experimental: (1) Example 6a: 8 g/L sodium chloride solution and chemical solution 6a were poured.
(2) Comparative Example 6a: 8 g/L sodium chloride solution and water were poured.
(3) Comparative Example 6b: Water was poured.
Plastic pots were filled with Kannami soil, and five seeds of wheat (variety: Kitahonami) were sowed at the center of each pot (3 cm in depth). Each test was repeated three times.
After sowing, the pots were allowed to stand in a growth chamber (20° C. dark room) for 4 days and then moved to a greenhouse.
A flowable agent containing 5% of a compound of formula (I)-1 was diluted 103 times with water to prepare chemical solution 6, and 17.3 mL of this chemical solution was poured for each pot on the 7th day after sowing (only Example 6a).
From the 10th day after sowing, 8 g/L sodium chloride solution was poured over the soil, 30 mL for each pot, once a day (only Example 6a and Comparative Example 6a).
On the 17th day after sowing, the largest root length (cm), the number of rooted individuals, the plant height (cm), and the top and root dry weights (g) were measured.

[5] = system: edible corn (Idaho Sweet 88); assay: Test Example 5: corn pot test, 8 g/L sodium chloride solution poured over soil; conditions: 8 g/L NaCl
Experimental: (§2) (1) Example 5a: 8 g/L sodium chloride solution and chemical solution 5a were poured.
(§3) (2) Comparative Example 5a: 8 g/L sodium chloride solution and water were poured.
(§4) (3) Comparative Example 5b: Water was poured.
(§5) Plastic pots were filled with Kannami soil, and seeds of edible corn (Idaho Sweet 88) and soybean (Enrei) were sowed in their respective pots, three seeds for each pot (3 cm in depth). Each test was repeated three times. The plants were grown with subirrigation in a greenhouse.
(§6) A flowable agent containing 5% of the compound of formula (I)-1 was diluted 103 times with water to prepare chemical solution 5, and 17.3 mL of this chemical solution was poured for each pot on the 8th day after sowing (only Example 5a).
(§7) After the chemical treatment, with a pot without holes placed at the bottom, tap water was misted from above on weekends and holidays, and 50 mL of tap water was poured over the soil for each pot every weekday.
(§8) From the 11th day after sowing, 8 g/L sodium chloride solution was poured over the soil, 50 mL for each pot, every day (only Example 5a and Comparative Example 5a).
(§9) On the 19th day after sowing, the largest root length (cm), the plant height (cm), and the top and root dry weights (g) were measured.

[6] = system: soybean (Enrei); assay: Test Example 5: soybean pot test, 8 g/L sodium chloride solution poured over soil; conditions: 8 g/L NaCl
Experimental: as §2, §3, §4, §5, §6, §7, §8, §9

[7] = system: rice (Koshihikari: Oryza sativa); assay: Test Example 4: rice in Wagner pots under submerged conditions with sodium chloride aqueous solution
Experimental: In the middle of June, Arakidatsuchi (2 mm sieved, Akagi Engei) was placed in a Wagner pot (1/5000 a), and five grains of dried seed rice (Koshihikari: Oryza sativa) were sown at the center of the Wagner pot at a sowing depth of 3 mm to 5 mm, thus starting raising by direct seeding under submerged conditions. Individuals except for one well-grown individual from which 2 to 3 tillers appeared were cut for thinning with scissors on the 28th day after sowing. Ten pots of these were prepared.
Midseason drainage was performed on the 47th to 49th day after sowing. A flowable agent containing 10% of the compound of formula (I)-1 was diluted 103 times with water to obtain chemical solution 4. […]
The number of withered, dead stems, the number of rolled leaves, the number of crown roots, the amount of water decrease, and the length of leaf tip blight were measured on the 68th day after sowing. […]
The plant height, the number of stems, the culm length, the number of ears, the ear length, the number of whitened unhulled rice grains, the leaf color of flag leaves, and the numbers of flag leaf blights and withered, dead leaves were measured in the heading period or after. […]
The culm length, the number of ears, the ear length, the number of whitened unhulled rice grains, the leaf color of flag leaves, and the numbers of flag leaf blights and withered, dead leaves were measured on the 106th day after sowing. […]

[8] = 125 mM sodium chloride + 10 mL chemical solution 3a (10% flowable diluted 105 times; b105 prints chemical solution 2a)
[9] = 125 mM sodium chloride + 10 mL chemical solution 3b (10% flowable diluted 107 times; b106 prints chemical solution 2b)
[10] = 125 mM sodium chloride + chemical solution 3a (diluted 105 times)
[11] = 125 mM sodium chloride + chemical solution 3b (diluted 107 times)
[12] = 125 mM sodium chloride salt stress, vs salt stress without the compound
[13] = 125 mM sodium chloride + 10 mL chemical solution 1a (10% flowable diluted 103 times)
[14] = 125 mM sodium chloride + 10 mL chemical solution 1b (10% flowable diluted 104 times)
[15] = 125 mM sodium chloride + chemical solution 1a (diluted 103 times)
[16] = 125 mM sodium chloride + chemical solution 1b (diluted 104 times)
[17] = 125 mM sodium chloride + 10 mL chemical solution 2a (10% flowable diluted 106 times), after 4 days, average of five seeds
[18] = 125 mM sodium chloride + chemical solution 2a (diluted 106 times), after 4 days, relative to Comparative Examples 2a and 2b
[19] = 5% flowable diluted 103 times, 17th day after sowing
[20] = 17.3 mL per pot of 5% flowable diluted 103 times on 7th day, measured 17th day after sowing
[21] = vs salt stress without the compound
[22] = 5% flowable diluted 103 times, 19th day after sowing
[23] = 17.3 mL per pot of 5% flowable diluted 103 times on 8th day, measured 19th day after sowing

Cn1nnnc1C(=NOCc1cccc(NC(=O)OC(C)(C)C)n1)c1ccccc1 [compound of formula (I)-1]
Foliage Length [1, 8]: 23.3 mm | Root Length [1, 8]: 30.8 mm | Root Number of roots [1, 8]: 4.0 | Foliage Length [1, 9]: 25.0 mm | Root Length [1, 9]: 29.0 mm | Root Number of roots [1, 9]: 4.0 | Foliage Recovery percentage [1, 10]: 0.0% | Root Recovery percentage [1, 10]: 41.8% | Foliage Recovery percentage [1, 11]: 0.0% | Root Recovery percentage [1, 11]: 19.0% | Recovery in the root compared with Comparative Example 3a (in words) [1, 12]: more recovery in the root | Foliage Length [2, 13]: 68.8 mm | Root Length [2, 13]: 49.6 mm | Root Number of roots [2, 13]: 5.6 | Foliage Length [2, 14]: 64.2 mm | Root Length [2, 14]: 50.2 mm | Root Number of roots [2, 14]: 5.2 | Foliage Recovery percentage [2, 15]: 31.0% | Root Recovery percentage [2, 15]: 8.1% | Foliage Recovery percentage [2, 16]: 15.8% | Root Recovery percentage [2, 16]: 9.1% | Recovery compared with Comparative Example 1a (in words) [2, 12]: more recovery | Foliage Length [3, 17]: 17.2 mm | Root Length [3, 17]: 38.6 mm | Root Number of roots [3, 17]: 5.2 | Foliage Recovery percentage [3, 18]: 28.3% | Root Recovery percentage [3, 18]: 33.8% | Recovery compared with Comparative Example 2a (in words) [3, 12]: more recovery | Largest root length Wheat A: number relative to 100 of Comparative Example 6b [4, 19]: 100 | Number of rooted individuals Wheat A: number relative to 100 of Comparative Example 6b [4, 19]: 104 | Plant height Wheat A: number relative to 100 of Comparative Example 6b [4, 19]: 98 | Root dry weight Wheat A: number relative to 100 of Comparative Example 6b [4, 19]: 94 | Top dry weight Wheat A: number relative to 100 of Comparative Example 6b [4, 19]: 96 | Largest root length Wheat [4, 20]: 18.3 cm | Number of rooted individuals Wheat [4, 20]: 8.0 Number | Plant height Wheat [4, 20]: 29.3 cm | Root dry weight Wheat [4, 20]: 0.034 g | Top dry weight Wheat [4, 20]: 0.059 g | Number of rooted individuals, plant height and root dry weight compared with Comparative Example 6a (in words) [4, 21]: better | Plant height Corn A: number relative to 100 of Comparative Example 5b [5, 22]: 91 | Root dry weight Corn A: number relative to 100 of Comparative Example 5b [5, 22]: 90 | Root length Corn A: number relative to 100 of Comparative Example 5b [5, 22]: 96 | Top dry weight Corn A: number relative to 100 of Comparative Example 5b [5, 22]: 83 | Plant height Corn [5, 23]: 37.0 cm | Root dry weight Corn [5, 23]: 0.10 g | Root length Corn [5, 23]: 17.3 cm | Top dry weight Corn [5, 23]: 0.40 g | Corn values compared with Comparative Example 5a (in words) [5, 21]: better values | Plant height Soybean A: number relative to 100 of Comparative Example 5b [6, 22]: 101 | Root dry weight Soybean A: number relative to 100 of Comparative Example 5b [6, 22]: 72 | Root length Soybean A: number relative to 100 of Comparative Example 5b [6, 22]: 105 | Top dry weight Soybean A: number relative to 100 of Comparative Example 5b [6, 22]: 91 | Plant height Soybean [6, 23]: 48.3 cm | Root dry weight Soybean [6, 23]: 0.15 g | Root length Soybean [6, 23]: 14.3 cm | Top dry weight Soybean [6, 23]: 0.72 g | Soybean values compared with Comparative Example 5a (in words) [6, 21]: better values | Growth and yield measurements, effect of chemical treatment (in words) ([7]; 2 g/L sodium chloride aqueous solution, 28 g ai per 10 a under submerged conditions): same effect was observed | Growth and yield measurements compared with Comparative Example 4a (in words) ([7]; 10 g/L sodium chloride aqueous solution, chemical solution 4, 56 mL per pot, 280 g ai per 10 a, on 50th day after sowing, FIGS. 1 to 14): better values

Reference: patent publication US20250151729A1, “METHOD FOR REDUCING OR PREVENTING EFFECT OF SALT STRESS ON PLANT” (NIPPON SODA CO., LTD, priority 2022, published 2025)
